Tests used:
[1] = Toxicity in telemetry implanted Beagle dog CNS at 30 mg/kg/day, po measured upto 24 hrs by radiotelemetry based electroencephalogram analysis; type: organism-based, Canis lupus familiaris; conditions: in vivo
[2] = Oral bioavailability in Beagle dog at 5 mg/kg measured after 24 hrs by LC/MS/MS analysis; type: ADME, organism-based, Canis lupus familiaris; conditions: in vivo
Cytochrome P450 2C9 = Cytochrome P450 2C9 (Homo sapiens, UniProt P11712); experiment: Inhibition of CYP2C9 (unknown origin) using midazolam as substrate; type: ADME
[3] = Plasma protein binding in human assessed as unbound fraction incubated for 24 hrs by equilibrium dialysis based Rapidfire-QToF mass spectrometric analysis; type: ADME, cell-free
[4] = Metabolic stability in male Sprague-Dawley rat liver microsomes assessed as intrinsic clearance at 1 uM by LC/MS/MS analysis; type: ADME, Microsome; conditions: read-out: CLH (converted)
[5] = Plasma protein binding in human assessed as unbound fraction at 2 uM incubated for 24 hrs by LC-MS analysis; type: ADME, cell-free
[6] = target: T1, Lysophosphatidic acid receptor 1 (Homo sapiens, UniProt Q92633); experiment: Antagonist activity at human LPA1 receptor expressed in HEK293 cells assessed as beta-arrestin2 effector recruitment incubated for 10 mins by BRET assay; type: functional, cell-based
P-gp (human) = experiment: Apparent permeability from basolateral to apical side of human P-gp transfected MDCK cells measured after 20 min by LC/MS/MS analysis; type: ADME, cell-based, Canis lupus familiaris; conditions: dog, MDCK-MDR1
[7] = AUC (0 to 24 hrs) in cynomolgus monkey at 5 mg/kg, po measured after 24 hrs by LC/MS/MS analysis; type: ADME, organism-based, Macaca fascicularis; conditions: in vivo
[8] = target: T1, Lysophosphatidic acid receptor 1; experiment: Antagonist activity at human wild-type LPA1 receptor expressed in HEK293 cells assessed as internalization incubated for 30 mins by BRET assay; type: cell-based
[9] = Half-life in male Sprague-Dawley rat at 5 mg/kg, po measured after 24 hrs by LC/MS/MS analysis; type: ADME, organism-based; conditions: in vivo
[10] = Lipophilicity, logD of compound at pH 7.4; type: physicochemical; conditions: buffer
[11] = target: T2, Solute carrier organic anion transporter family member 1B1 (Homo sapiens, UniProt Q9Y6L6); experiment: Inhibition of OATPB1P1 in human hepatocyte by LC-MS analysis; type: cell-based
T2 sequence (Q9Y6L6 whole entry): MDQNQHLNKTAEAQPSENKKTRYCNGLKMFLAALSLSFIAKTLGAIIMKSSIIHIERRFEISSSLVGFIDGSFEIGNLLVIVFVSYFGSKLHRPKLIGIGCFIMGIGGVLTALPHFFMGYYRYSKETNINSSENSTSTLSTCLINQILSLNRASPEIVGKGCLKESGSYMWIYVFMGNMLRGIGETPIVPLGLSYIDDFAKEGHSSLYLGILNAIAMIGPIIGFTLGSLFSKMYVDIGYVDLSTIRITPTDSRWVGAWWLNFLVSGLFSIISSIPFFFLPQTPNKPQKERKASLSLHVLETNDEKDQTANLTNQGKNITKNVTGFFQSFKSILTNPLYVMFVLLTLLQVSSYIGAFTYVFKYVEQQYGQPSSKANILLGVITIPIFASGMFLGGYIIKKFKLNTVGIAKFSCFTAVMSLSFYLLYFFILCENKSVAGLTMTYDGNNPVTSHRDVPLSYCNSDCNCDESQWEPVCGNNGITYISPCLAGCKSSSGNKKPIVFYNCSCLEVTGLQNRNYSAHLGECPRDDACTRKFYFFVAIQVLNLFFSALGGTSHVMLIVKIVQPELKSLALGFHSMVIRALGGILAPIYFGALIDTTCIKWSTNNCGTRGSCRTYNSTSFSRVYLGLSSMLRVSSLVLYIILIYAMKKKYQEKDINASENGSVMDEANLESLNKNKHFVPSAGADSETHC

[12] = AUC (0 to 24 hrs) in male Sprague-Dawley rat at 5 mg/kg, po measured after 24 hrs by LC/MS/MS analysis; type: ADME, organism-based; conditions: in vivo
[13] = target: T3, Lysophosphatidic acid receptor 3 (Homo sapiens, UniProt Q9UBY5); experiment: Antagonist activity at human LPA3 receptor overexpressed in CHO cells pre-incubated for 1 hr followed by LPA addition by fluorescence based FLIPR calcium assay; type: functional, cell-based
T3 sequence (Q9UBY5 whole entry): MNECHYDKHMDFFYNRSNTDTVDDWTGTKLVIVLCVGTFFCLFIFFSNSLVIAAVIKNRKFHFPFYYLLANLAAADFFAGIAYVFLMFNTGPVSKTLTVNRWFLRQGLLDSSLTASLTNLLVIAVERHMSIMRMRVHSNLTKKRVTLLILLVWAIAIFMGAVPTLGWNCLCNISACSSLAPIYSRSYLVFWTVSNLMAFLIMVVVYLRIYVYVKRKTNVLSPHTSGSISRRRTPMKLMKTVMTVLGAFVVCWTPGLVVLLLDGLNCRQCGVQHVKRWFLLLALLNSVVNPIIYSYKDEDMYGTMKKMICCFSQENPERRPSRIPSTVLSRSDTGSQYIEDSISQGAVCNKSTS

[14] = target: T1, Lysophosphatidic acid receptor 1; experiment: Displacement of [3H]LPA from human LPA1 receptor overexpressed in CHO cell membrane assessed as inhibition constant incubated for 90 min by competitive radioligand binding assay; type: cell membranes
[15] = target: T1, Lysophosphatidic acid receptor 1; experiment: Antagonist activity at LPA1 receptor in serum starved human Primary lung fibroblast cells pre-incubated for 1 hr followed by LPA stimulation and measured after 30 min by MRTF-A assay; type: cell-based
BCRP (human) = experiment: Apparent permeability from apical to basolateral side of human BCRP transfected MDCK cells measured after 20 min by LC/MS/MS analysis; type: ADME, cell-based, Canis lupus familiaris; conditions: dog
[16] = Apparent permeability from basolateral to apical side in human Caco-2 cells at 10 uM; type: ADME, cell-based
[17] = target: Voltage-gated inwardly rectifying potassium channel KCNH2 (Homo sapiens, UniProt Q12809); experiment: Inhibition of human ERG; type: toxicity
[18] = Plasma protein binding in cynomolgus monkey assessed as unbound fraction at 2 uM incubated for 24 hrs by LC-MS analysis; type: ADME, cell-free, Macaca fascicularis
[19] = Toxicity in Beagle dog CNS at 60 mg/kg/day, po measured after 7 days by radiotelemetry; type: organism-based, Canis lupus familiaris; conditions: in vivo, 168 h, time 7 day
[20] = Volume of distribution in male Sprague-Dawley rat at 1 mg/kg, iv s measured after 24 hrs by LC/MS/MS analysis; type: ADME, organism-based; conditions: in vivo
Cytochrome P450 3A4 = Cytochrome P450 3A4 (Homo sapiens, UniProt P08684); experiment: Inhibition of CYP3A4 (unknown origin) using testosterone as substrate; type: ADME
[21] = Drug metabolism in Beagle dog hepatocyte assessed as (R)-1-(2,5-Difluoropyridin-3-yl)ethyl[4-(5-Aminopyridin-2-yl)-1-methyl-1H-1,2,3-triazol-5-yl]carbamate Hydrochloride metabolite formation at 1 uM by LC/MS/MS analysis; type: ADME, Canis lupus familiaris; conditions: hepatocytes
[22] = AUC (0 to 24 hrs) in Beagle dog at 5 mg/kg, po measured after 24 hrs by LC/MS/MS analysis; type: ADME, organism-based, Canis lupus familiaris; conditions: in vivo

T1 sequence (Q92633 whole entry): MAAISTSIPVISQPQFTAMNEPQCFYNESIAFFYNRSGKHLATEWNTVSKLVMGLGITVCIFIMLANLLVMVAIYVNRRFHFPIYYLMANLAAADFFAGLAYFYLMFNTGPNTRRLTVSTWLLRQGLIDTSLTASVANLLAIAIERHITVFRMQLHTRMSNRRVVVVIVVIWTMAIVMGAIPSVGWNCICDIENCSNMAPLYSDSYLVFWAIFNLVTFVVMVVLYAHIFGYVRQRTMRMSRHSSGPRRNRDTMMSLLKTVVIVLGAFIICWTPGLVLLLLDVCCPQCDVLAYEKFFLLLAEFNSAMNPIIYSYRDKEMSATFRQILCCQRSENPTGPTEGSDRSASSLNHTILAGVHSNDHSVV
Chain of Cytochrome P450 2C9 (P11712 whole entry): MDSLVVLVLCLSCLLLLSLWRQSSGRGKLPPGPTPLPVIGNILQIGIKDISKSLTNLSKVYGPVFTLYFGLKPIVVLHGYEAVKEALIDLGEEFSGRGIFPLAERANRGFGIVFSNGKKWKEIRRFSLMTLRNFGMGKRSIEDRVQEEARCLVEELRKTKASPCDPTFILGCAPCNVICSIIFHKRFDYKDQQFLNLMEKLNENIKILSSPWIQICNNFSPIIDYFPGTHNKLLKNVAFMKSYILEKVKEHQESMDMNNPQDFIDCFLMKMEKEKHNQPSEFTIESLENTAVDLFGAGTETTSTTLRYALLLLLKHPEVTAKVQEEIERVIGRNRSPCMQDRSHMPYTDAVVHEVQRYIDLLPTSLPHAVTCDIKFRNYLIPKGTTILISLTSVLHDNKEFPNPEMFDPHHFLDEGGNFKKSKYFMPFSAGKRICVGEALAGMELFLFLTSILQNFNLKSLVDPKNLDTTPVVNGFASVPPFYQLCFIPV
Chain of Voltage-gated inwardly rectifying potassium channel KCNH2 (Q12809 whole entry): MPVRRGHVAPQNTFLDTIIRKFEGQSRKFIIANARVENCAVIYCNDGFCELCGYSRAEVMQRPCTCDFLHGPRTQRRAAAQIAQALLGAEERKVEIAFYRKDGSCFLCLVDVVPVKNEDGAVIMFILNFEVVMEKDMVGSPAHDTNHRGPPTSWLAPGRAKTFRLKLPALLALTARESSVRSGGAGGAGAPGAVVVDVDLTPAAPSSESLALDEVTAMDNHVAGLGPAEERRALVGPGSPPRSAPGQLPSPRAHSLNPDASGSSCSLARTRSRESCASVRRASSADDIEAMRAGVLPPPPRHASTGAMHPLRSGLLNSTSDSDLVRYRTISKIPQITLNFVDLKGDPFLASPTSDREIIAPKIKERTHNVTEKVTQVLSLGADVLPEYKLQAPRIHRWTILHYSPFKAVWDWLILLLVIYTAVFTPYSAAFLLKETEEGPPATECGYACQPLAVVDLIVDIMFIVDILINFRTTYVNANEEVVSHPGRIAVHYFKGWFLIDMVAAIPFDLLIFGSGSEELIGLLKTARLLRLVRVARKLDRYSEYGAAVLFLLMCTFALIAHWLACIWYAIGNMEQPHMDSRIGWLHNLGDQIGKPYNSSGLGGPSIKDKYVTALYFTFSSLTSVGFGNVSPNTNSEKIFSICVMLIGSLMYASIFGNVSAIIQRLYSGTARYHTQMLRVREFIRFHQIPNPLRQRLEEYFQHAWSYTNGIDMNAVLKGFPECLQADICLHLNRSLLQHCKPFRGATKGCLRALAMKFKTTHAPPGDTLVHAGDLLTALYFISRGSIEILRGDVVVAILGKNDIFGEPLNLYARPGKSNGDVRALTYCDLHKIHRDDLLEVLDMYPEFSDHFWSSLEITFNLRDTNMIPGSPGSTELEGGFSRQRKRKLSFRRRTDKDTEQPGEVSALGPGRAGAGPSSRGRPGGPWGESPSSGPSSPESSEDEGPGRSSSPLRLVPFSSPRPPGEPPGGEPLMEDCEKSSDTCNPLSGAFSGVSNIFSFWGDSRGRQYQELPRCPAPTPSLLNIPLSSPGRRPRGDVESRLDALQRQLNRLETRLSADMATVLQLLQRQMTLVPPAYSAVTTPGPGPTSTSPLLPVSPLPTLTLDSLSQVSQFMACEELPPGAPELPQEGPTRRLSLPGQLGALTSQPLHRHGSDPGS
Chain of Cytochrome P450 3A4 (P08684 whole entry): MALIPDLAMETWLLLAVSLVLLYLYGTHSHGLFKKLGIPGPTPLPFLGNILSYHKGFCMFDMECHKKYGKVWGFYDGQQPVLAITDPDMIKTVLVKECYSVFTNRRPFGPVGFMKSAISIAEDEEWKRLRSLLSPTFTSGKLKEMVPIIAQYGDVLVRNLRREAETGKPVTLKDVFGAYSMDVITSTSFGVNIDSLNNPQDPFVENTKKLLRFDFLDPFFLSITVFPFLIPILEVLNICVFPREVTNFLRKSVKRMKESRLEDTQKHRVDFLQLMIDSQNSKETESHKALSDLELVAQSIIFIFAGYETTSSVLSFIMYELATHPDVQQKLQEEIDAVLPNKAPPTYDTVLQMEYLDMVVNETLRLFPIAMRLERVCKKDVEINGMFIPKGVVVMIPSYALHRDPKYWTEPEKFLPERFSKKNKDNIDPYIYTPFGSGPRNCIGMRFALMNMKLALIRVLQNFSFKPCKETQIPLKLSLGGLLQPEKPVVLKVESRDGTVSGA

For C[C@@H](OC(=O)Nc1c(-c2ccc(NC(=O)c3cnc(C(F)(F)F)nc3)cn2)nnn1C)c1cc(F)cnc1F, the Activity [1] was “Non-toxic”, the bioavailability [2] was 49% and the “inhibition (INH)” value (Cytochrome P450 2C9) was “Not_active”. For the same compound, the fraction unbound at 24 h [3] was 0.19, the CLint scaled at 1 µM [4] was 16.3 mL/min/kg and the fraction unbound at 24 h, 2 µM [5] was 0.14. It also gave an EC50 [6] of 134 nM, a Papp B→A at 20 min (P-gp (human)) of 11 ×10⁻⁶ cm/s and an AUC(0-t) at 24 h [7] of 8.9 µM·h. The EC50 [8] was 11.7 nM, the half-life [9] was 3.9 h and the logD [10] was 2.7. The IC50 [11] was 13000 nM, the AUC(0-t) at 24 h [12] was 5.1 µM·h and the EC50 [13] was > 10000 nM. For the same compound, the Ki [14] was 60 nM, the EC50 [15] was 8 nM and the Papp A→B at 20 min (BCRP (human)) was < 0.01 ×10⁻⁶ cm/s. The Papp B→A at 10 µM [16] was 17 ×10⁻⁶ cm/s, the IC50 [17] was > 30000 nM and the fraction unbound at 24 h, 2 µM [18] was 0.24. The Activity [19] was “Non-toxic”, the Vd [20] was 0.8 L/kg and the “inhibition (INH)” value (Cytochrome P450 3A4) was “Time-dependent-effect”. The Drug metabolism [21] was “metabolite_detected” and the AUC(0-t) at 24 h [22] was 54 µM·h.
